The text below walks through data of patent US4508716A, “[1,2]-Fused 1,4-benzodiazepine compounds, process for their preparation and compositions containing them” (Kali-Chemie Pharma GmbH, priority 1981, dated 1985).

One data set concerns hexobarbital anaesthesia. The data set is described as follows: Test for the central nervous system sedating properties: prolongation of the duration of hexobarbital anaesthesia in mice. It is filed as in vivo. Conditions: male mice, 60 min before hexobarbital sodium 50 mg/kg i.v.
Data set [1] deals with apomorphine-induced climbing behaviour. Nature of the data set: Test for neuroleptic properties: inhibition of apomorphine-induced climbing behaviour in mice. Format: in vivo. As to conditions: Mus musculus, male NMR1 mice, 60 min before apomorphine 1.0 mg/kg s.c.; for inhibition in vivo at 2.2 mg/kg: dose 2.2 mg/kg peroral. The method, then:
2. Test for neuroleptic properties
Determination of the effective dose for inhibiting apomorphine-induced climbing behaviour in mice (modified method of P. Protais et al., Psychopharmacology 50, (1976), 1-6).
Groups each containing 10 male NMR1 mice of 18-24 g. body weight are used per test dose. The test substance is administered perorally, as a suspension in […] "Tylose" solution.
After 60 minutes, the animals are each injected subcutaneously with 1.0 mg./kg. of apomorphine, and immediately after the injection, each animal is placed under a vertical wire mesh cylinder (diameter 13 cm., height 16 cm., closed at the top). After 10, 20 and 30 minutes, the climbing behaviour of the animals is evaluated in accordance with the following point system:
0 points=no paw on the mesh
1 point=one or two paws touching the mesh
2 points=three or all paws gripping the mesh, or climbing
For each test group, the sum of the points (maximum number of points=20) at the three test times is determined, and the average of the 3 values is taken for calculating the inhibition of climbing behaviour effected by the test substance.
In the table which follows, the inhibiting action is given in % inhibition in comparison with the climbing behaviour of a control group which was not treated with the test substance.

Data set [2] is described as follows: Acute toxicity (acute 7-day toxicity following a single oral administration, LD50 by probit analysis). Conditions: mouse, in vivo, NMR1 mice. The method, then:
The acute 7-day toxicity is determined following a single oral administration to white, fasting NMR1 mice, and the LD50 value is calculated by electronic data processing, by probit analysis.

Molecules are shown by their SMILES.

In the case of `CN1CCN2c3ccccc3C(c3cccs3)=NCC2C1` (centres unmarked) [Example 4, 1,2,3,4,4a,5-Hexahydro-3-methyl-7-(2-thienyl)-pyrazino[1,2-a][1,4]benzodiazepine], the “Prolongation of the duration of hexobarbital anaesthesia, prolongation factor” value (shortened to “Prolongation”) with hexobarbital anaesthesia (dose ≤13.8 mg/kg peroral) was 0. Moreover, testing at 2.9 mg/kg in data set [1] (dose 2.9 mg/kg peroral) gave an inhibition in vivo of 70%. Besides, the median lethal dose (LD50) (in general, the dose at which mortality reaches 50%) at 168 h in data set [2] was about 440 mg/kg.

Turning to `CN1CCN2c3ccc(Cl)cc3C(c3cccn3C)=NCC2C1` (centres unmarked) [Example 9, 1,2,3,4,4a,5-Hexahydro-9-chloro-3-methyl-7-[2-(N-methyl)-pyrrolyl]-pyrazino[1,2-a][1,4]benzodiazepine], the “Prolongation” value in the data set on hexobarbital anaesthesia (dose ≤41.5 mg/kg peroral) was 0. Besides, in data set [1] (dose 4.2 mg/kg peroral), 4.2 mg/kg produced 48% inhibition in vivo. Also, the LD50 at 168 h in data set [2] was over 893 mg/kg.

For the compound `Cc1ccc2c(c1)C(c1ccco1)=NCC1CN(C)CCN21` (centres unmarked) [Example 10a, 1,2,3,4,4a,5-Hexahydro-3,9-dimethyl-7-(2-furyl)-pyrazino[1,2-a][1,4]benzodiazepine], the “Prolongation” value in the data set on hexobarbital anaesthesia (dose ≤42.2 mg/kg peroral) was 0. The inhibition in vivo (in general, the relative decrease from the control value, in per cent) at 13.3 mg/kg in data set [1] (dose 13.3 mg/kg peroral) is 31%. Further, in data set [2], the median lethal dose (LD50) at 168 h is over 422 mg/kg.

On to `Cc1ccc2c(c1)C(c1ccc(Br)s1)=NCC1COCCN21` (centres unmarked) [Example 22], for which the “Prolongation” value in the data set with hexobarbital anaesthesia (dose 37.7 mg/kg peroral) stood at 1.5. The same compound registered an inhibition in vivo at 8.1 mg/kg in data set [1] (dose 8.1 mg/kg peroral) of 50%. In data set [2], the 50% lethal dose (LD50) at 168 h is over 811 mg/kg.

Regarding `Cc1ccc2c(c1)C(c1ccco1)=[N+]([O-])CC1CN(C)CCN21` (centres unmarked) [Example 35], the “Prolongation” value in the data set on hexobarbital anaesthesia (dose 9.8 mg/kg peroral) is 2.1. This compound also gave an inhibition in vivo at 9.8 mg/kg in data set [1] (dose 9.8 mg/kg peroral) of 35%. Also, in data set [2], the LD50 at 168 h was over 311 mg/kg.

`COc1ccc2c(c1)N1CCN(C)CC1C[N+]([O-])=C2c1ccco1` (centres unmarked) [Example 36]: the “Prolongation” value in the data set with hexobarbital anaesthesia (dose ≤70.4 mg/kg peroral) is given as 0. For the same compound, the inhibition in vivo at 22.3 mg/kg in data set [1] (dose 22.3 mg/kg peroral) is 34%. Further, the LD50 at 168 h in data set [2] was over 704 mg/kg.

Take `CCOc1ccc2c(c1)C(c1ccn(C)c1)=NCC1CN(C)CCN21` (centres unmarked) [Example 41]: in the data set with hexobarbital anaesthesia (dose 43.8 mg/kg peroral), the “Prolongation” value stood at 1.6. Moreover, the inhibition in vivo at 13.9 mg/kg in data set [1] (dose 13.9 mg/kg peroral) was found to be 14%.

`COc1ccc2c(c1)N1CCN(C)CC1CN=C2c1cccs1` (centres unmarked) [Example 51]: the “Prolongation” value in the data set with hexobarbital anaesthesia (dose 22.3 mg/kg peroral) stood at 1.9. The same compound came in with an inhibition in vivo at 2.2 mg/kg in data set [1] of 57%. Moreover, the LD50 at 168 h in data set [2] was over 704 mg/kg.

On to `CN1CCN2c3cc(F)ccc3C(c3cccs3)=NCC2C1` (centres unmarked) [Example 55], for which the “Prolongation” value in the data set on hexobarbital anaesthesia (dose 6.8 mg/kg peroral) is on record as 1.3. The inhibition in vivo at 0.2 mg/kg in data set [1] (dose 0.2 mg/kg peroral) came to 47%. Moreover, the LD50 at 168 h in data set [2] was over 315 mg/kg.

For the compound `Cc1cc(C)c2c(c1)N1CCOCC1CN=C2c1cccs1` (centres unmarked) [Example 63], the “Prolongation” value with hexobarbital anaesthesia (dose 67.2 mg/kg peroral) worked out at 1.5. For the same compound, 21.3 mg/kg produced 11% inhibition in vivo in data set [1] (dose 21.3 mg/kg peroral).

Turning to `Cc1cc(C)c2c(c1)N1CCSCC1CN=C2c1cccs1` (centres unmarked) [Example 65], the inhibition in vivo at 22.4 mg/kg in data set [1] (dose 22.4 mg/kg peroral) amounted to 12%.

Take `CCN1CCN2c3ccccc3C(c3cccs3)=NCC2C1` (centres unmarked) [Example 69]: the “Prolongation” value in the data set on hexobarbital anaesthesia (dose ≤28.0 mg/kg peroral) is on record as 0. In addition, testing at 0.7 mg/kg in data set [1] (dose 0.7 mg/kg peroral) gave an inhibition in vivo of 71%. This compound also registered a 50% lethal dose (LD50) at 168 h in data set [2] of about 420 mg/kg.

Consider `C=CCN1CCN2c3ccccc3C(c3cccs3)=NCC2C1` (centres unmarked) [Example 70], for which the “Prolongation” value with hexobarbital anaesthesia (dose ≤39.6 mg/kg peroral) is recorded as 0. This compound gave an inhibition in vivo at 2.2 mg/kg in data set [1] of 36%. The 50% lethal dose (LD50) at 168 h in data set [2] was about 790 mg/kg.

Turning to `CC(C)CCN1CCN2c3ccccc3C(c3cccs3)=NCC2C1` (centres unmarked) [Example 74], in the data set with hexobarbital anaesthesia (dose 33.0 mg/kg peroral), the “Prolongation” value turned out to be 2.0. The inhibition in vivo at 3.3 mg/kg in data set [1] (dose 3.3 mg/kg peroral) came to 70%. The compound further gave an LD50 at 168 h in data set [2] of about 730 mg/kg.
